A short description of experiment [1]: Passive-Avoidance Anoxic-Induced-Amnesia Test. Format: in vivo, Swiss-Webster mice. The note with it: vs saline control, active if 30 percent. The source says:
Another in vivo test associated with decreased neural function in mammals is the Passive-Avoidance Anoxic-Induced-Amnesia Test. This test is used to determine the attenuation of anoxic induced amnesia in mice treated with drug, as compared to saline treated control animals with no drug.
A shock-motivated, single trial, step-through passive avoidance procedure is used. Groups of 25 Swiss-Webster, middle aged mice (9 months of age) are placed singly in the front chamber of a 2-chamber box and are allowed to voluntarily cross into the rear chamber. As soon as the mouse enters the rear chamber, a door automatically traps the animal and a mild electric shock (0.4 mA for 4 seconds) is delivered to its feet. Following the foot shock, the mice are initially placed in an anoxic environment (0 percent oxygen) for 12 seconds, which quickly induces unconsciousness. They are then placed in a hypoxic environment (15 percent oxygen) for four minutes which prolongs the oxygen deprived state, maintaining unconsciousness. All testing is performed 24 hours later, and in all cases the mice appear fully recovered from the previous anoxic/hypoxic treatment. All test compounds are administered intraperitoneally at a dose of 5-200 mg/kg, 30 minutes prior to training and testing. Control animals are injected intraperitoneally only with saline at 0.01 cc/g of body weight.
The latency to enter the rear chamber is recorded for both training and testing. Presumably, the more the animal remembers being shocked, the greater it will inhibit going into the rear chamber and the higher will be its latency to re-enter. An improvement of 30 percent over saline control scores is considered active.

Experiment [2] concerns Brain-Specific Receptors of Rats (3H-benzodiazepine binding). Briefly: Inhibition of the binding of 3H-benzodiazepine to brain-specific receptors of rats. Also on record: species or system rat (male albino, Wistar strain). The note with it: 3H-diazepam or 3H-flunitrazepam, rat cortex P2 fraction, pH 7.4, 30 min in ice; test concentration not given. An excerpt:
Still another test utilized for the determination of anxiolytic activity is the measurement of the ability of a test compound to inhibit the binding of tritiated benzodiazepines to brain-specific receptors of mammals. A modification of the method described by R. F. Squires, et al, Nature, 266, No. 21:732 (April, 1977) and H. Mosler, et al, Science, 198:849 (1977) was employed.
Male albino rats (Wistar strain, weighing 150-200 g each) were used. The test compounds were solubilized in N,N-dimethylformamide, acetic acid, ethanol or hydrochloric acid.
Whole cortex of rats was homogenized gently in 20 volumes of ice-cold 0.32 M sucrose, centrifuged twice at 1000 g for 10 minutes and then recentrifuged at 30,000 g for 20 minutes to produce a crude P2 -synaptosomal fraction. The P2 -fraction was either: (1) resuspended in twice the original volume in hypotonic 50 mM Tris.HCl(pH 7.4), or (2) resuspended in one-half of the original volume in hypotonic 10 mM Tris.HCL (pH 7.4) and frozen (-20° C.) until time of use. Frozen P2 preparations were thawed and resuspended in four times the original homogenizing volume at time of assay.
The binding assay consisted of 300 l of the P2 -fraction suspension (0.2-0.4 mg protein), 100 l of test drug and 100 l of 3H-diazepam 91.5 nM, final concentration) or 3H-flunitrazepam (1.0 nM, final concentration )which was added to 1.5 l of 50 mM Tris.HCl (pH 7.4). Non-specific binding controls and total binding controls received […] of diazepam ([…] final concentration) and 100 l of deionized water, respectively, in place of the test compound. Incubation for 30 minutes proceeded in ice and was terminated by filtration, under vacuum, through glass fiber filters. The filters were washed twice with 5 ml of ice-cold 50 mM Tris.HCl (pH 7.4) and placed in scintillation vials. After drying at 50°-60° C. for 30 minutes, 10 ml of diluent was added and the radioactivity determined in a scintillation counter.
Inhibition of binding was calculated by the difference between total binding and binding in the presence of test compound, divided by the total, times 100. Physiological activity can be shown by a test compound that inhibits 3H-benzodiazepine binding by 12 percent or more.

The nature of experiment [3]: Mean arterial blood pressure in spontaneously hypertensive rats. The class given is in vivo, spontaneously hypertensive rats of the Okamoto strain. The note with it: gavage, 100 mg/kg or less, two doses 24 h apart, measured at 28 h; average MABP of rats 160±1.5. The method, then: Certain of the novel compounds of the present invention are active hypotensive agents at non-toxic doses when administered to mammals. These compounds were tested for hypotensive activity by the method of P. S. Chan and D. W. Poorvin, Clinical and Experimental Hypertension, 1 (6), […] (1979). Male, 16 week old spontaneously hypertensive rats of the Okamoto strain having an average mean arterial blood pressure of 160±1.5 mm of mercury are used in the test. One to three rats are used per test compound. A rat is dosed by gavage with a test compound, suspended in 2 percent pre-boiled starch at a concentration of50 mg/ml, at a dose of 100 mg/kg of body weight or less, with 0.9 percent sodium chloride loading at a dose of 25 ml/kg of body weight. A second identical dose of the test compound, without sodium chloride loading is given 24 hours later. At 28 hours after the initial dose the mean arterial blood pressure is measured by the method of Chan and Poorvin vide supra. The procedure is repeated in a second and third rat when necessary.

Experiment [4] in a line: Protection against clonic seizures caused by pentylenetetrazole. The note with it: 50 mg/kg, orally or intraperitoneally; pentylenetetrazole 23 mg/kg i.v. at 30 or 60 min. Format: in vivo, rats. As for the experimental part: The anti-anxiety properties of the novel compounds of the present invention have been established in a test which indicates anxiolytic activity by the measure of protection from convulsions resulting from the administration of pentylenetetrazole. Single or graded dose levels of the test compounds were administered orally or intraperitoneally in a 2 percent starch vehicle containing 0.5 percent v/v polyethylene glycol and one drop of Polysorbate 80, or distilled water and one drop of Polysorbate 80 to groups of at least four rats. At 30 or 60 minutes, the rats were treated intravenously with pentylenetetrazole at a dose of 23 mg/kg of body weight. This dose is estimated to cause clonic seizures in 99 percent of unprotected rats. The test compounds are considered active if they protect 50 percent or more of the rats from clonic seizures.
It has been reported (R. T. Hill and D. H. Tedeschi, "Animal Testing and Screening Procedures in Evaluating Psychotropic Drugs" in "An Introduction to Psychopharmacology", pp 237-288 (Eds. R. R. Rech and K. E. Moore, Raven Press, New York, 1971)) that there is a high degree of correlation between antagonism of pentylenetetrazole seizures in rats and anti-anxiety effects in higher warm-blooded animals.

A further experiment is described as follows: Hypoxic Survival Test. The class given is in vivo, Royal Hart mice. The note with it: for % Survivors: 30 min before hypoxia, survival after 5 min. The method, then: A useful in vivo test that measures how effectively central nervous system-acting drugs enhance survival in an hypoxic environment, presumably by improving the ratio of energy supply to demand is known as the Hypoxic Survival Test. […] Drugs are tested by intraperitoneally injecting groups of mice 30 minutes prior to placing them in hypoxic mixture and measuring survival. The rationale of this test is that drugs which enhance survival under hypoxic conditions without concomitant, depression or sedative side effects, may do so by enhancing energy metabolism, or by preserving normal brain function under conditions of reduced energy metabolism. Given the dependence of the brain on a constant supply of energy, drugs which have this property may have many far-reaching therapeutic indications, including recovery from stroke and closed head injury, as well as reducing the deleterious effects of the aging central nervous system. […]
A separate group of 20 mice is injected intraperitoneally with saline solution (0.01 cc/g of body weight) and processed as described above.
Still another group of 20 mice is injected intraperitoneally with 0.125 mg/kg of physostigmine and processed as described above.

Where “and” joins values, the source holds several entries; their conditions need not be identical. Equal values may be shown once.

As a reminder, the % Inhibition is the drop in the measured response relative to a control, in per cent. Read a high % Inhibition as a response far below the control.

For `CC(=NC(=O)c1cnn2c(-c3cccnc3)ccnc12)N(C)C` [N-((Dimethylamino)ethylidene)-7-(3-pyridinyl)pyrazolo(1,5-a)pyrimidine 3-carboxamide], the “% Improvement” value is 53% in experiment [1] (25 mg/kg i.p.) and 46% in experiment [1] (50 mg/kg i.p.).
On to `CN(C)C=NC(=O)c1cnn2c1NCC=C2c1cccnc1` [N-((Dimethylamino)methylene)4,5-dihydro-7-(3-pyridinyl)pyrazolo(1,5-a)pyrimidine-3-carboxamide], for which the “% Improvement” value is 66% in experiment [1] (50 mg/kg i.p.) and 54% in experiment [1] (100 mg/kg i.p.). For the same molecule, the “% Inhibition” value in experiment [2] turned out to be 32%. In experiment [3], the “MABP/mmHg (no. of rat)” value is given as 113 mmHg.
With `Cc1cccc(-c2ccnc3c(C(=O)N=CN(C)C)cnn23)c1` [N-((Dimethylamino)methylene) 7-(3-methylphenyl)pyrazolo(1,5-a)pyrimidine-3-carboxamide], the “% Inhibition” value in experiment [2] was found to be 65%. The “% of Rats Protected” value in experiment [4] stood at 50%.
As to `Cc1cc(-c2ccccc2)n2nc(C)c(C(=O)N=CN(C)C)c2n1` [N-((Dimethylamino)methylene)-2,5-dimethyl-7-phenylpyrazolo(1,5-a)pyrimidine-3-carboxamide], the “% Survivors” value in the experiment “Hypoxic Survival Test” (100 mg/kg i.p.) is 42%.
For `Cc1nn2c(-c3ccncc3)ccnc2c1C(=O)N=CN(C)C` [N-((Dimethylamino)methylene)-2-methyl-7-(4-pyridinyl)pyrazolo(1,5-a)pyrimidine-3-carboxamide], the “% Survivors” value in “Hypoxic Survival Test” (10 mg/kg i.p.) was found to be 55%. Further, the “MABP/mmHg (no. of rat)” value in experiment [3] is 130 mmHg.
For `Cc1nn2c(-c3ccccc3)ccnc2c1C(=O)N=CN(C)C` [N-((Dimethylamino)methylene)-2-methyl-7-phenylpyrazolo(1,5-a)pyrimidine-3-carboxamide], the “% Survivors” value is 45% in “Hypoxic Survival Test” (0.1 mg/kg i.p.), 100% in “Hypoxic Survival Test” (10 mg/kg i.p.), 97% in the experiment “Hypoxic Survival Test” (100 mg/kg i.p.) and 95% in the experiment “Hypoxic Survival Test” (200 mg/kg i.p.). In addition, the “% Improvement” value in experiment [1] (5 mg/kg i.p.) is 49%; in experiment [1] (10 mg/kg i.p.), 37%; in experiment [1] (25 mg/kg i.p.), 66%; in experiment [1] (50 mg/kg i.p.) it was 66%. The “% Inhibition” value in experiment [2] is given as 18%.
In the case of `Cc1cnc2c(C(=O)N=CN(C)C)cnn2c1` [N-((Dimethylamino)methylene)-6-methyl-pyrazolo(1,5-a)pyrimidine-3-carboxamide], the “% Survivors” value in the experiment “Hypoxic Survival Test” (10 mg/kg i.p.) came out at 42%; in “Hypoxic Survival Test” (50 mg/kg i.p.), 40%; in “Hypoxic Survival Test” (100 mg/kg i.p.), 62%; in the experiment “Hypoxic Survival Test” (200 mg/kg i.p.) it was 45%.
Turning to `CN(C)C=NC(=O)c1cnn2c(-c3cccnc3)ccnc12` [N-((Dimethylamino)methylene)-7-(3-pyridinyl)-pyrazolo(1,5-a)pyrimidine-3-carboxamide], in the experiment “Hypoxic Survival Test” (25 mg/kg i.p.), the “% Survivors” value was 80% and 58% and 42%. Moreover, the “% Improvement” value in experiment [1] (25 mg/kg i.p.) and in experiment [1] (50 mg/kg i.p.) was 33% throughout.
Consider `CN(C)C=NC(=O)c1cnn2c(-c3cccc(C(F)(F)F)c3)ccnc12` [N-((Dimethylamino)methylene)-7-(3-trifluoromethyl)phenyl)pyrazolo(1,5-a)pyrimidine-3-carboxamide], for which the “% Inhibition” value in experiment [2] stood at 82%.
In the case of `CN(C)C=NC(=O)c1cnn2c(-c3ccccc3)ccnc12` [N-((Dimethylamino)methylene)-7-phenylpyrazolo(1,5-a)-pyrimidine-3-carboxamide], in experiment [2], the “% Inhibition” value is recorded as 28%.
As for `CNC(=O)Oc1ccc2c(c1)[C@]1(C)CCN(C)[C@@H]1N2C` [physostigmine, reference compound], the “percent of physostigmine treated mice that survive” value in “Hypoxic Survival Test” (10 percent oxygen, after 5 minutes, control mice 5-20 percent, dose 0.125 mg/kg i.p.) was 60-80%.

Source of the values: patent publication US5169850A, “N-(dialkylamino)methylene)-substituted pyrazolo(1,5-a)-pyrimidine-3-carboxamides and N-(dialkylamino)methylene-substituted-4,5-dihydropyrazolo-(1,5-a)-pyrimi dine-3-carboxamides” (American Cyanamid Company, priority 1991, dated 1992).
